Patent US20070149465A1, “COMPOSITIONS AND METHODS FOR PREVENTION AND TREATMENT OF CACHEXIA” (priority 2005, published 2007)
Where two headings read alike, the source gives them in different places.

Legend:
[1] = system: AH-inoculated rats; assay: Rat AH130 Ascites Hepatoma Model of Cancer Cachexia, AH-inoculated rats; type: in vivo, female Wistar rats; conditions: for Carcass Weights Mean / Gastrocnemius Weights Mean / Heart Weights Mean: normalized to 100 g Day 5 Total Body Weight
Method: (§1) Following the method of Busquets et al (Busquets S, et al: Cancer Res 64:6725-31, 2004), female Wistar rats were inoculated (Day 0) intra-peritoneally (i.p.) with 2×10^7 cells/animal of Yoshida AH-130 ascites hepatoma (AH) cells. Control animals were inoculated with an equivalent amount of sterile saline solution. […] The animals were sacrificed on Day 5. Upon sacrifice, wet weights of heart and gastrocnemius muscle were determined. Carcass (after gastrocnemius, heart, and ascites removal) weight was also determined upon sacrifice.
(§2) Treatment Group=Inoculation Type/Vehicle, or Treatment Group=Inoculation Type/F(x)R(y) where, Inoculation Type is either AH or Saline, F is formoterol fumarate, R is roxithromycin, and the parenthetical values are formoterol fumarate and roxithromycin doses (i.p. in mg/kg).

[2] = system: Saline-inoculated rats; assay: Rat AH130 experiments, saline-inoculated control rats given drug; type: in vivo, female Wistar rats
Method: as §1, §2

[3] = Osmolality of formoterol filtrate in citrate buffers; type: physicochemical; conditions: 25° C.
[4] = for Formoterol solubility: 25° C.
[5] = cited from earlier work; for estimated shelf-life: compositions of Banerjee et al.; for rate constant of decomposition: 60° C., buffer 5 mM, ionic strength 0.05
[6] = Exp 1 Group 3, AH, F 1, R 0 mg/kg i.p., Day 5
[7] = Exp 2 Group 7, AH, F 1, R 0 mg/kg i.p., Day 5
[8] = Exp 3 Group 13, AH, F 1, R 0 mg/kg i.p., Day 5
[9] = Exp 4 Group 18, AH, F 1, R 0 mg/kg i.p., Day 5, sample weight normalized to 100 g Day 5 Total Body Weight
[10] = Exp 2 Group 10, Saline, F 1, R 0 mg/kg i.p., Day 5, normalized to 100 g Day 5 Total Body Weight

COc1ccc(C[C@@H](C)NC[C@H](O)c2ccc(O)c(NC=O)c2)cc1.COc1ccc(C[C@@H](C)NC[C@H](O)c2ccc(O)c(NC=O)c2)cc1.O=C(O)/C=C/C(=O)O [formoterol fumarate]
Carcass Weights Mean [1, 6]: 95.35 g | Gastrocnemius Weights Mean [1, 6]: 0.551 g | Heart Weights Mean [1, 6]: 0.337 g | Carcass Weights Mean [1, 7]: 89.7 g | Gastrocnemius Weights Mean [1, 7]: 0.499 g | Heart Weights Mean [1, 7]: 0.348 g | Carcass Weights Mean [1, 8]: 93.1 g | Gastrocnemius Weights Mean [1, 8]: 0.489 g | Heart Weights Mean [1, 8]: 0.376 g | Carcass Mean [1, 9]: 97.8 | Gastrocnemius Mean [1, 9]: 0.502 | Heart Mean [1, 9]: 0.367 | gastrocnemius muscle loss compared with AH/vehicle group ([1]; Experiment 1, AH/F(1)R(0) group): significantly less | Carcass Weights Mean [2, 10]: 97.6 g | Gastrocnemius Weights Mean [2, 10]: 0.613 g | Heart Weights Mean [2, 10]: 0.410 g | gastrocnemius muscle weights compared with Saline/vehicle group ([2]; Experiment 2, Saline/F(1)R(0) group): approximately the same | Formoterol Filtrate osmolality ([3]; 20 mM citrate, pH 4): 49 mOsm/kG | Formoterol Filtrate osmolality ([3]; 20 mM citrate, pH 5): 56 mOsm/kG | Formoterol Filtrate osmolality ([3]; 20 mM citrate, pH 6): 60 mOsm/kG | Formoterol Filtrate osmolality ([3]; 20 mM citrate, pH 7): 66 mOsm/kG | Formoterol Filtrate osmolality ([3]; 50 mM citrate, pH 4): 113 mOsm/kG | Formoterol Filtrate osmolality ([3]; 50 mM citrate, pH 5): 130 mOsm/kG | Formoterol Filtrate osmolality ([3]; 50 mM citrate, pH 6): 140 mOsm/kG | Formoterol Filtrate osmolality ([3]; 50 mM citrate, pH 7): 146 mOsm/kG | Formoterol Filtrate osmolality ([3]; 100 mM citrate, pH 4): 205 mOsm/kG | Formoterol Filtrate osmolality ([3]; 100 mM citrate, pH 5): 249 mOsm/kG | Formoterol Filtrate osmolality ([3]; 100 mM citrate, pH 6): 275 mOsm/kG | Formoterol Filtrate osmolality ([3]; 100 mM citrate, pH 7): 278 mOsm/kG | Formoterol Filtrate osmolality ([3]; 200 mM citrate, pH 4): 392 mOsm/kG | Formoterol Filtrate osmolality ([3]; 200 mM citrate, pH 5): 473 mOsm/kG | Formoterol Filtrate osmolality ([3]; 200 mM citrate, pH 6): 527 mOsm/kG | Formoterol Filtrate osmolality ([3]; 200 mM citrate, pH 7): 543 mOsm/kG | Formoterol solubility ([4]; 20 mM citrate, pH 4): 2710 µg/mL | Formoterol solubility ([4]; 20 mM citrate, pH 5): 2350 µg/mL | Formoterol solubility ([4]; 20 mM citrate, pH 6): 2470 µg/mL | Formoterol solubility ([4]; 20 mM citrate, pH 7): 2330 µg/mL | Formoterol solubility ([4]; 50 mM citrate, pH 4): 3690 µg/mL | Formoterol solubility ([4]; 50 mM citrate, pH 5): 2770 µg/mL | Formoterol solubility ([4]; 50 mM citrate, pH 6): 2780 µg/mL | Formoterol solubility ([4]; 50 mM citrate, pH 7): 2920 µg/mL | Formoterol solubility ([4]; 100 mM citrate, pH 4): 3010 µg/mL | Formoterol solubility ([4]; 100 mM citrate, pH 5): 2690 µg/mL | Formoterol solubility ([4]; 100 mM citrate, pH 6): 2870 µg/mL | Formoterol solubility ([4]; 100 mM citrate, pH 7): 2600 µg/mL | Formoterol solubility ([4]; 200 mM citrate, pH 4): 3690 µg/mL | Formoterol solubility ([4]; 200 mM citrate, pH 5): 2900 µg/mL | Formoterol solubility ([4]; 200 mM citrate, pH 6): 2720 µg/mL | Formoterol solubility ([4]; 200 mM citrate, pH 7): 2840 µg/mL | solubility ([4]; citrate buffer concentrations between 20 and 200 mM at pH 4 to pH 7): > 1000 µg/mL | estimated shelf-life ([5]; 5° C.): about 6.2 years | estimated shelf-life ([5]; 25° C.): about 7.5 months | rate constant of decomposition ([5]; pH 3): approximately 0.62 day^1 | rate constant of decomposition ([5]; pH 4): ~0.11 day^1 | rate constant of decomposition ([5]; pH 5): ~0.044 day^1 | rate constant of decomposition ([5]; pH 7): ~0.55 day^1
